From the supplement of paper PMC10307832

How the values were obtained:
Assay in all cases: relative viability (nuclei count vs DMSO), 5 days (fraction); higher = more cells survive
[1] = compound: O[C@H]1CC[C@H](Nc2ncc3nc(Nc4c(F)cc(F)cc4F)n([C@H]4CCOC4)c3n2)CC1 [Tanzisertib] + COc1cccc2cc(-c3nc([C@H]4CC[C@H](C(=O)O)CC4)n4ncnc(N)c34)[nH]c12 [OSI-027] (partner 0.5 µM)
In short: (§1)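 After 5 days of treatment, lung cancer cells in 1536-well plates were fixed and stained in a single step (final 0.05% Triton X-100, 1% formaldehyde, 1 ug/ml Hoechst) and their nuclei counted on 4× images. Treatment had been applied by pin tool the day after seeding as one drug alone or as a fixed anchor-drug dose with five library-drug doses (not always all listed) in √10 steps. Relative viability is the nuclei count of treated wells divided by that of vehicle wells, and values are medians of duplicate plates.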

[2] = compound: O[C@H]1CC[C@H](Nc2ncc3nc(Nc4c(F)cc(F)cc4F)n([C@H]4CCOC4)c3n2)CC1 [Tanzisertib] + NC(=O)Nc1cc(-c2cccc(F)c2)sc1C(=O)N[C@H]1CCCNC1 [AZD7762] (partner 0.2 µM)
In short: as §1

[3] = compound: O[C@H]1CC[C@H](Nc2ncc3nc(Nc4c(F)cc(F)cc4F)n([C@H]4CCOC4)c3n2)CC1 [Tanzisertib] + Nc1nc2[nH]cc(CCc3ccc(C(=O)N[C@@H](CCC(=O)O)C(=O)O)cc3)c2c(=O)[nH]1 [Pemetrexed] (partner 0.2 µM)
In short: as §1

[4] = compound: C[C@@H](N)c1ccc(C(=O)Nc2ccnc3[nH]ccc23)cc1 + C[C@]1(O)C[C@@H](c2nc(-c3ccc4ccc(-c5ccccc5)nc4c3)c3c(N)nccn32)C1 [Linsitinib] (partner 1 µM)
In short: as §1

| Cell Line | relative viability ([1]; first compound 0.08 µM) | relative viability ([1]; first compound 0.253 µM) | relative viability ([1]; first compound 0.8 µM) | relative viability ([1]; first compound 2.53 µM) | relative viability ([1]; first compound 8 µM) | relative viability ([2]; first compound 0.253 µM) | relative viability ([2]; first compound 0.8 µM) | relative viability ([2]; first compound 2.53 µM) | relative viability ([2]; first compound 8 µM) | relative viability ([3]; first compound 0.253 µM) | relative viability ([3]; first compound 0.8 µM) | relative viability ([3]; first compound 2.53 µM) | relative viability ([3]; first compound 8 µM) | relative viability ([4]; first compound 0.04 µM) | relative viability ([4]; first compound 0.1265 µM) | relative viability ([4]; first compound 0.4 µM) | relative viability ([4]; first compound 4 µM) | relative viability ([2]; first compound 0.08 µM) | relative viability ([3]; first compound 0.08 µM) | relative viability ([4]; first compound 1.265 µM) |
| --- | --- | --- | --- | --- | --- | --- | --- | --- | --- | --- | --- | --- | --- | --- | --- | --- | --- | --- | --- | --- |
| SW 900 | 0.644 | 0.588 | 0.511 | 0.866 | 0.556 | 0.646 | 0.603 | 0.727 | 0.423 | 0.51 | 0.501 | 0.451 | 0.464 | – | – | – | – | – | – | – |
| NCI-H1944 | 0.4 | 0.393 | 0.426 | 0.389 | 0.338 | 0.507 | 0.52 | 0.422 | 0.458 | 0.589 | 0.686 | 0.678 | 0.554 | 1.28 | 1.16 | 1.17 | 0.835 | 0.526 | 0.733 | – |
| NCI-H727 | 0.618 | 0.564 | 0.643 | 0.483 | 0.647 | 0.652 | 0.524 | 0.544 | 0.599 | – | – | – | – | 0.135 | 0.559 | 0.493 | 0.785 | 0.59 | – | 0.736 |
| NCI-H1650 | 0.644 | 0.876 | 0.735 | 0.539 | 0.52 | – | – | – | – | 0.351 | 0.511 | 0.33 | 0.329 | – | – | – | – | – | 0.349 | – |
| HCC-827 | 0.857 | 0.763 | 0.775 | 0.678 | 0.44 | 0.227 | 0.19 | 0.164 | 0.147 | 0.229 | 0.25 | 0.251 | 0.175 | 0.972 | 0.94 | 0.911 | 0.843 | 0.206 | 0.266 | 0.925 |
| HCC-366 | 0.968 | 0.888 | 0.942 | 0.977 | 0.051 | 0.316 | 0.277 | 0.192 | 0.286 | 0.201 | 0.152 | 0.204 | 0.328 | 0.615 | 0.63 | 0.785 | 0.49 | – | – | – |
| HARA | 0.74 | 0.496 | 0.537 | 0.45 | 0.0888 | 0.358 | 0.337 | 0.286 | 0.275 | 0.275 | 0.282 | 0.24 | 0.245 | 1.09 | 1.06 | 1.15 | 0.521 | 0.288 | 0.282 | 0.996 |
| NCI-H322M | 0.636 | 0.623 | 0.539 | 0.6 | 0.538 | 0.547 | 0.547 | 0.527 | 0.492 | 0.657 | 0.566 | 0.621 | 0.548 | 1.02 | 1.12 | 0.93 | 1.1 | 0.567 | 0.644 | – |
| LXF-289 | 0.801 | 0.818 | 0.76 | 0.856 | 0.644 | 1.09 | 1.19 | 1.1 | 1.12 | 0.923 | 1.01 | 0.915 | 1.02 | 1.02 | 0.995 | 0.997 | 0.88 | 1.21 | 0.902 | 1.09 |
| PC-3 [JPC-3] | 0.862 | 0.721 | 0.833 | 0.789 | 0.699 | 0.937 | 0.844 | 0.733 | 0.679 | 1.3 | 1.23 | 1.04 | 0.466 | 0.963 | 1.05 | 0.978 | 0.879 | 0.81 | 1.16 | 1 |
| CAL-12T | 0.612 | 0.633 | 0.62 | 0.748 | 0.635 | 0.79 | 0.623 | 0.636 | 0.647 | 1.24 | 1.12 | 1.21 | 1.18 | 0.928 | 0.888 | 0.88 | 0.719 | 0.606 | 1.06 | 1.09 |
| COR-L 105 | 0.663 | 0.686 | 0.682 | 0.631 | 0.444 | – | – | – | – | 1.12 | 1.14 | 1.28 | 0.884 | 0.917 | 1.02 | 0.857 | 0.436 | – | 1.4 | 0.845 |
| NCI-H2347 | 0.447 | – | 0.46 | 0.42 | 0.407 | 0.718 | 0.825 | 0.762 | 0.662 | 0.468 | 0.435 | 0.408 | 0.442 | 0.937 | 0.868 | 1.02 | 0.8 | 0.866 | 0.454 | 1.02 |
| NCI-H2126 | 0.8 | 0.723 | 0.742 | 0.614 | 0.548 | 1.03 | 1.04 | 1.05 | 1.05 | 0.69 | 0.728 | 0.723 | 0.515 | 0.726 | 0.72 | 0.805 | 0.781 | 1.07 | 0.674 | 0.705 |
| A549 | – | – | – | – | – | – | – | – | – | – | – | – | – | 0.674 | 0.666 | 0.726 | 0.619 | – | – | 0.775 |
| NCI-H2342 | 0.663 | 0.718 | 0.571 | 0.537 | 0.583 | 0.633 | 0.515 | 0.477 | 0.41 | 0.749 | 0.768 | 0.708 | 0.668 | – | – | – | – | 0.416 | 0.867 | – |
